{"source": "patent EP2021356B1", "about": "“HIV VACCINE” (priority 2006, dated 2007)", "key": {"[1]": {"tested_on": "peptide pulsed HHD-EL4S3-Rob target cells", "details": "Corbet et al., 2003; cited from earlier work"}, "HLA-A*0201 molecule": {"biological_target": "HLA-A*0201 molecule (Homo sapiens, UniProt P04439, D140Y/D185E/D98H/E176V/E277Q/G131W/G231S/I119V/I121R/I166T/I218V/L300P/L318F/N151K/N90K/P208A/P217A/Q86G/Q94H/R138H/R169H/T345S)", "assay": "In vitro binding to HLA-A*0201"}}, "note": "Ends that are not written are not given here.", "data": [{"molecule": "ALVEMGHHV [Vpu66(9V)^mod]", "values": [{"measurement": "immunogenicity of anchor-optimized epitope with cross-reaction to the natural epitope", "setting": "[1]", "result": "very strong immune response"}]}, {"molecule": "GLADQLIHI [Vif 101 (9 I)]", "values": [{"measurement": "IC50", "setting": "HLA-A*0201 molecule", "result": 30, "unit": "nM"}]}, {"molecule": "SLADQLIHL [Vif 101 (1 S)]", "values": [{"measurement": "IC50", "setting": "HLA-A*0201 molecule", "result": 43, "unit": "nM"}]}, {"molecule": "HLADQLIHQ [G1HL9Q]", "values": [{"measurement": "IC50", "setting": "HLA-A*0201 molecule", "result": 1160, "unit": "nM"}]}, {"molecule": "CC[C@H](C)[C@H](NC(=O)[C@H](CC(C)C)NC(=O)[C@H](CCC(N)=O)NC(=O)[C@H](CC(=O)O)NC(=O)[C@H](C)NC(=O)[C@H](CC(C)C)NC(=O)CN)C(=O)N[C@@H](Cc1c[nH]cn1)C(=O)N[C@@H](CC(C)C)C(=O)O", "note": "[Vif 101 (9L)]", "values": [{"measurement": "IC50", "setting": "HLA-A*0201 molecule", "result": 219, "unit": "nM"}]}, {"molecule": "ELADQLIHL [Vif101(1E)^var]", "values": [{"measurement": "IC50", "setting": "HLA-A*0201 molecule", "result": 6590, "unit": "nM"}]}, {"molecule": "FLGKIWPV [Gag433(9V)^mod]", "values": [{"measurement": "immunogenicity of anchor-optimized epitope with cross-reaction to the natural epitope", "setting": "[1]", "result": "very strong immunogens"}]}, {"molecule": "DLADQLIHL [Vif 101 (1 D)]", "values": [{"measurement": "IC50", "setting": "HLA-A*0201 molecule", "result": 1950, "unit": "nM"}]}]}
